Each block holds one molecule with its values, some of them ahead of it.
Tests used:
[1] = target: T1, FGFR2 (Homo sapiens, UniProt P21802); assay: Enzyme binding assay (KINOMEscan) FGFR2; details: pKd = -log Kd (M), read-out: FGFR2_pKd (converted)
T1 construct: purchased DiscoveRx Corporation
Procedure: (§1) Enzyme Binding Assays (KINOMEscan®)
(§2) Kinase enzyme binding affinities of compounds disclosed herein were determined using the KINOMEscan® technology performed by DiscoveRx Corporation, San Diego, Calif., USA (www.kinomescan.com).

[2] = target: T2, FGFR1 (Homo sapiens, UniProt P11362); assay: Enzyme binding assay (KINOMEscan) FGFR1; details: FGFR1_pKd, pKd = -log Kd (M)
T2 construct: purchased DiscoveRx Corporation
Procedure: as §1, §2

[3] = target: T3, FGFR4 (Homo sapiens, UniProt P22455); assay: Enzyme binding assay (KINOMEscan) FGFR4; details: pKd = -log Kd (M); for Kd: read-out: FGFR4_pKd (converted)
T3 construct: purchased DiscoveRx Corporation
Procedure: as §1, §2

[4] = target: T4, FGFR3 (Homo sapiens, UniProt P22607); assay: Enzyme binding assay (KINOMEscan) FGFR3; details: pKd = -log Kd (M), read-out: FGFR3_pKd (converted)
T4 construct: purchased DiscoveRx Corporation
Procedure: as §1, §2

[5] = target: T5, VEGFR2 (Homo sapiens, UniProt P35968); assay: Enzyme binding assay (KINOMEscan) VEGFR2; details: pKd = -log Kd (M), read-out: VEGFR2_pKd (converted)
T5 construct: purchased DiscoveRx Corporation
Procedure: as §1, §2

T5 sequence (P35968 20-1356): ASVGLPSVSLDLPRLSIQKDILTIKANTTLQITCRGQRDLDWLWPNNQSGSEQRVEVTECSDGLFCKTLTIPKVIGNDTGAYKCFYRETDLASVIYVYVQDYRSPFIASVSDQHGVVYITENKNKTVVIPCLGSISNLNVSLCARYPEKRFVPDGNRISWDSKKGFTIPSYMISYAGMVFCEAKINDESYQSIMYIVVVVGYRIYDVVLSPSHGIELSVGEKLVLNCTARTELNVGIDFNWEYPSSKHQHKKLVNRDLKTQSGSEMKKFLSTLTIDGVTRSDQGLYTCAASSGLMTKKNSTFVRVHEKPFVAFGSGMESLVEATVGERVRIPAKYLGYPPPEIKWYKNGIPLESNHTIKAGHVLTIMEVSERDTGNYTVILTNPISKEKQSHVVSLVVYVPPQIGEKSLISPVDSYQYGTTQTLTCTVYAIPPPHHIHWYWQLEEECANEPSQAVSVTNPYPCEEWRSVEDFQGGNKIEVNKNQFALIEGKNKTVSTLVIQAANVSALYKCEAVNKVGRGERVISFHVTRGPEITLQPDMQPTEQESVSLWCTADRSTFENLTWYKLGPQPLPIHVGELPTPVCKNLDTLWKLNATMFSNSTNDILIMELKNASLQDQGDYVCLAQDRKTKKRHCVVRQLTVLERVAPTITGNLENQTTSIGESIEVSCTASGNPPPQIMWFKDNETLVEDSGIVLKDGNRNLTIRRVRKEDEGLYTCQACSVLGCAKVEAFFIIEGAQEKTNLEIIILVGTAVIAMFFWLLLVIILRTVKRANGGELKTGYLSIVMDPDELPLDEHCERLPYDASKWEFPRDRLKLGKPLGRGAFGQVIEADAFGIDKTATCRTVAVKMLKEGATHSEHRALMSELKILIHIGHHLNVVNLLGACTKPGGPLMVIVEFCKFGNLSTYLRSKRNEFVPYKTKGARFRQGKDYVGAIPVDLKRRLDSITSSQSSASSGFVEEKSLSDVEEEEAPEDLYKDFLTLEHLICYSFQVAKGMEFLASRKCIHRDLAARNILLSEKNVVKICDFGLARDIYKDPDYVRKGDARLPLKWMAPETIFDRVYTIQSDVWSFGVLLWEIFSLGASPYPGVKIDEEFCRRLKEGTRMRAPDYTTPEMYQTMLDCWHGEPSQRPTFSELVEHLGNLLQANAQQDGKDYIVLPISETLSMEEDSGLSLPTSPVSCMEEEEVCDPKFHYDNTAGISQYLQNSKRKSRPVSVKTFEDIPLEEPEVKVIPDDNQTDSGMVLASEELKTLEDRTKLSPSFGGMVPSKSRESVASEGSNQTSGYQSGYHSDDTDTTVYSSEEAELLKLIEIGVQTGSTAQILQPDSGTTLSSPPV
T3 sequence (P22455 22-802): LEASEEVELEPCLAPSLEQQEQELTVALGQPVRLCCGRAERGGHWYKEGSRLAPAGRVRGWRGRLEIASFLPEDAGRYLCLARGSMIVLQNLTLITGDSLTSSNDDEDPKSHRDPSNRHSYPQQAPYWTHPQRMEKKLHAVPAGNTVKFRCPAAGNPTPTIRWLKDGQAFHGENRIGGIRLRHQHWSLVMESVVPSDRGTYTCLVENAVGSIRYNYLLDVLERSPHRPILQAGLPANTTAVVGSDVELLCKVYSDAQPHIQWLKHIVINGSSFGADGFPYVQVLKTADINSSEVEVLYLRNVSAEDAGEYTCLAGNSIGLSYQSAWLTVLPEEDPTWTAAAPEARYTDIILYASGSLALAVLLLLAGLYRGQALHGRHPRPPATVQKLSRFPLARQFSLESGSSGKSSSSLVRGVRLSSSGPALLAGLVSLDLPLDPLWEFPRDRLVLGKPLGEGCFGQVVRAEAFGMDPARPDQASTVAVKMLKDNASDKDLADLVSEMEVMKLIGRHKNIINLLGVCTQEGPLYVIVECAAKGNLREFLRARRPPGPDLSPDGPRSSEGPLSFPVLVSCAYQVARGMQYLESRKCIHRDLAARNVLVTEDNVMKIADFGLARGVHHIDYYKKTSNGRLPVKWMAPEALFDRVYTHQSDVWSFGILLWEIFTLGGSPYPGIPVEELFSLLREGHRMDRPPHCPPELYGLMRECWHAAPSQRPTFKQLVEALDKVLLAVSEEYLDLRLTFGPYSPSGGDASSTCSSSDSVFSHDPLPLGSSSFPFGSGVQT
T4 sequence (P22607 23-806): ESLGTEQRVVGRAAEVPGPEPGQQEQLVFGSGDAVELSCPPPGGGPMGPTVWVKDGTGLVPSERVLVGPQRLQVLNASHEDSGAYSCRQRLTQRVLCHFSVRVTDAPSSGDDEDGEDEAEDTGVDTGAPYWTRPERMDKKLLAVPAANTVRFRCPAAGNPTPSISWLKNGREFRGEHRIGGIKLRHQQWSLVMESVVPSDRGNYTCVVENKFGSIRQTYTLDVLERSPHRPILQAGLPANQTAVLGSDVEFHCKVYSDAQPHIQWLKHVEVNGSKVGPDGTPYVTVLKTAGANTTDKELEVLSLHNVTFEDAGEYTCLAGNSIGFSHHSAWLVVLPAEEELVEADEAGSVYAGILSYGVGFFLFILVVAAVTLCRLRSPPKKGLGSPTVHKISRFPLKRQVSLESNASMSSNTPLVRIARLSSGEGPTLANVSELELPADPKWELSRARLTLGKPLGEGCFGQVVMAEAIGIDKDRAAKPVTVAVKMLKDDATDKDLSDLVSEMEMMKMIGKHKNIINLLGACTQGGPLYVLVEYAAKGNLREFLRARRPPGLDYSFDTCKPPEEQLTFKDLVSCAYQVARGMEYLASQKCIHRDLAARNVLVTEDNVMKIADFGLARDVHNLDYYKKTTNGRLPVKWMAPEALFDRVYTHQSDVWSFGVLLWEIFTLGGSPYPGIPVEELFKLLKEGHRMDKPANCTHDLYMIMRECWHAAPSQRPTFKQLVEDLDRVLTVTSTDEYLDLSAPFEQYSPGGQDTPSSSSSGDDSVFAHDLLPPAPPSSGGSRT
T2 sequence (P11362 22-822): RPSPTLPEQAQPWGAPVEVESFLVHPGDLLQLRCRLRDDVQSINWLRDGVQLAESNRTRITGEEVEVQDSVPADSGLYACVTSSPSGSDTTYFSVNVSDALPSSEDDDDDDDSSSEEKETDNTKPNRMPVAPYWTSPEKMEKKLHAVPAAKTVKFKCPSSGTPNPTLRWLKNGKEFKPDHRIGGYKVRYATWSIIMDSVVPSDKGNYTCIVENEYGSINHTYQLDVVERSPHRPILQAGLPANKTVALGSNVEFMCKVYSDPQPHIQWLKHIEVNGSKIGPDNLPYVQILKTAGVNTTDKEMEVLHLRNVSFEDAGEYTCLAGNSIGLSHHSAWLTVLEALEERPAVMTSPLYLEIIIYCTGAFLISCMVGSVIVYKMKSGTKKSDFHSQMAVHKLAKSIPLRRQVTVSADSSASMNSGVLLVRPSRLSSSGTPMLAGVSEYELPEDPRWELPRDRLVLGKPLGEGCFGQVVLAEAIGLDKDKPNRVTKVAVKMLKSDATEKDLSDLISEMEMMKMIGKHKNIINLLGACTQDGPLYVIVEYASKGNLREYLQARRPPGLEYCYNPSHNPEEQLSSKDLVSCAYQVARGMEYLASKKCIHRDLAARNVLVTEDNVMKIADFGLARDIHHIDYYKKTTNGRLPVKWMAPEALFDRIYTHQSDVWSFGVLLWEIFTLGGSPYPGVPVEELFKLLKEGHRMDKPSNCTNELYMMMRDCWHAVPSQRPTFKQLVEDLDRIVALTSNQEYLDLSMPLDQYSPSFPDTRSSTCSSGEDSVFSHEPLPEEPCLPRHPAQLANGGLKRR
T1 sequence (P21802 22-821): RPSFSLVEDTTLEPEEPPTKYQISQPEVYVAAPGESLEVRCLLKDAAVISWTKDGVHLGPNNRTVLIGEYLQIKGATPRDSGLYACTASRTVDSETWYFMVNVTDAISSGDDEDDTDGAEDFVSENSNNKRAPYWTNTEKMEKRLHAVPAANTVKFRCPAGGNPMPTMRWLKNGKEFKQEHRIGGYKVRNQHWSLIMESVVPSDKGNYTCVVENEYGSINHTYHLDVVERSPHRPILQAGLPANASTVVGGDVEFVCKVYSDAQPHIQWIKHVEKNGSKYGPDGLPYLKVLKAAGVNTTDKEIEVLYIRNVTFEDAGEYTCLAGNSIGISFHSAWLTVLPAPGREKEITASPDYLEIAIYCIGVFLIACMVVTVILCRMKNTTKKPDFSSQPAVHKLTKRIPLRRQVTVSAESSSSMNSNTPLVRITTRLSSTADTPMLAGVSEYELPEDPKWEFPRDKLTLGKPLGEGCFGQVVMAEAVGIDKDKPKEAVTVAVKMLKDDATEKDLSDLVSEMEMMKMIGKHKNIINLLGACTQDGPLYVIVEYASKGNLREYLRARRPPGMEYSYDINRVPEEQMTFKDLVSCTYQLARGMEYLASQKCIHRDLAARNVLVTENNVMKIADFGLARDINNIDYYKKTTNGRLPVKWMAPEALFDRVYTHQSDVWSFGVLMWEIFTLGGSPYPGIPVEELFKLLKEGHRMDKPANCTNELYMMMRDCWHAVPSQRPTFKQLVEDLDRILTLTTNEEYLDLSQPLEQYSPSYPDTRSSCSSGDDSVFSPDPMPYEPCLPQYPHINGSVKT

Structure (SMILES): COc1cc(OC)c(F)c(N(CCCNC(C)C)c2ccc3ncn(C4CCNCC4)c(=O)c3c2)c1
melting point: 140 °C

Structure (SMILES): COc1cc(OC)c(F)c(N(CCO)c2ccc3ncn(-c4cncnc4)c(=O)c3c2)c1F [Compound 76]
Kd [1]: 1.58e-08 M | Kd [2]: 6.31e-08 M | Kd [3]: 2e-07 M | Kd [4]: 3.16e-08 M | melting point: 178 °C | Kd [5]: > 3.16e-06 M

Structure (SMILES): COc1cc(OC)c(F)c(N(CCNC(C)C)c2ccc3ncn(-c4cccnc4)c(=O)c3c2)c1 [Compound 33]
Kd [1]: 1.58e-08 M | Kd [2]: 5.01e-09 M | Kd [3]: 2.51e-08 M | Kd [4]: 7.94e-09 M | melting point: 133 °C | Kd [5]: 1.58e-06 M

Structure (SMILES): COc1cc(OC)c(F)c(N(CCO)c2ccc3ncn(C4CCNCC4)c(=O)c3c2)c1F [Compound 46]
Kd [1]: 3.98e-08 M | Kd [2]: 1e-07 M | Kd [3]: 7.94e-07 M | Kd [4]: 1e-07 M | melting point: 186 °C | Kd [5]: > 3.16e-06 M

Structure (SMILES): COc1cc(OC)cc(N(Cc2ncc[nH]2)c2ccc3ncn(C4CCOCC4)c(=O)c3c2)c1 [Compound 69]
Kd [1]: 5.01e-08 M | Kd [2]: 1.58e-07 M | Kd [4]: 1.58e-07 M | melting point: 260 °C | Kd [5]: > 3.16e-06 M

Structure (SMILES): COc1cc(OC)c(F)c(N(Cc2nccn2S(=O)(=O)N(C)C)c2ccc3ncn(-c4cccnc4)c(=O)c3c2)c1 [Compound 36]
Kd [1]: 1e-07 M | Kd [2]: 1.58e-07 M | Kd [3]: 1.26e-06 M | Kd [4]: 2.51e-07 M | melting point: 108 °C | Kd [5]: > 3.16e-06 M

Structure (SMILES): COc1cc(OC)c(F)c(N(CCCNC(C)C)c2ccc3ncn(C4CCNCC4)c(=O)c3c2)c1F [Compound 60]
Kd [1]: 5.01e-09 M | Kd [2]: 6.31e-09 M | Kd [3]: 3.98e-08 M | Kd [4]: 1.26e-08 M | melting point: 126 °C

Structure (SMILES): COc1cc(OC)c(F)c(N(Cc2nccn2S(=O)(=O)N(C)C)c2ccc3ncn(C4CCOCC4)c(=O)c3c2)c1 [Compound 67]
Kd [1]: 2.51e-07 M | Kd [2]: 3.16e-07 M | Kd [3]: > 3.16e-06 M | Kd [4]: 7.94e-07 M | melting point: 189 °C | Kd [5]: > 3.16e-06 M

Structure (SMILES): COc1cc(OC)c(F)c(N(CCO)c2ccc3ncn(-c4ccncc4)c(=O)c3c2)c1F [Compound 37]
Kd [1]: 2.51e-09 M | Kd [2]: 1.58e-08 M | Kd [3]: 5.01e-08 M | Kd [4]: 5.01e-09 M | melting point: 198 °C

Structure (SMILES): COc1cc(OC)c(F)c(N(Cc2nccn2S(=O)(=O)N(C)C)c2ccc3ncn(-c4ccncc4)c(=O)c3c2)c1F [Compound 40]
Kd [1]: 3.16e-08 M | Kd [2]: 3.98e-08 M | Kd [3]: 2.51e-07 M | Kd [4]: 6.31e-08 M | melting point: 139 °C | Kd [5]: 1.58e-06 M

Structure (SMILES): COc1cc(OC)cc(N(CCO)c2ccc3ncn(C4CCOCC4)c(=O)c3c2)c1 [Compound 64]
Kd [1]: 3.98e-07 M | Kd [2]: 6.31e-07 M | Kd [3]: > 3.16e-06 M | melting point: 204 °C | Kd [5]: > 3.16e-06 M

Structure (SMILES): COc1cc(OC)c(F)c(N(CCCNC(C)C)c2ccc3ncn(C4CCOCC4)c(=O)c3c2)c1 [Compound 72]
Kd [1]: 1e-08 M | Kd [2]: 7.94e-09 M | Kd [3]: 5.01e-08 M | Kd [4]: 1.58e-08 M | Kd [5]: 2.51e-06 M

Structure (SMILES): COc1cc(OC)c(F)c(N(Cc2ncc[nH]2)c2ccc3ncn(C4CCNCC4)c(=O)c3c2)c1F [Compound 43]
Kd [1]: 7.94e-09 M | Kd [2]: 1.58e-08 M | Kd [3]: 5.01e-08 M | Kd [4]: 2e-08 M | melting point: 223 °C | Kd [5]: > 3.16e-06 M

Structure (SMILES): COc1cc(OC)c(F)c(N(CCO)c2ccc3ncn(-c4cccnc4)c(=O)c3c2)c1 [Compound 30]
Kd [1]: 3.98e-08 M | Kd [2]: 2.51e-07 M | Kd [3]: 5.01e-07 M | Kd [4]: 6.31e-08 M | melting point: 186 °C | Kd [5]: > 3.16e-06 M

Structure (SMILES): COc1cc(OC)c(F)c(N(Cc2ncc[nH]2)c2ccc3ncn(C4CCOCC4)c(=O)c3c2)c1 [Compound 75]
Kd [1]: 1e-08 M | Kd [2]: 3.98e-08 M | Kd [3]: 2e-07 M | Kd [4]: 1.58e-08 M | melting point: > 260 °C | Kd [5]: > 3.16e-06 M

Structure (SMILES): COc1cc(OC)cc(N(CCCO)c2ccc3ncn(C4CCOCC4)c(=O)c3c2)c1 [Compound 66]
Kd [1]: 5.01e-07 M | Kd [2]: 1.26e-06 M | Kd [3]: > 3.16e-06 M | Kd [4]: 1.26e-06 M | Kd [5]: > 3.16e-06 M

Structure (SMILES): COc1cc(OC)cc(N(CCNC(C)C)c2ccc3ncn(-c4cccnc4)c(=O)c3c2)c1 [Compound 34]
Kd [1]: 5.01e-08 M | Kd [2]: 6.31e-08 M | Kd [3]: 6.31e-07 M | Kd [4]: 1.26e-07 M | melting point: 136 °C | Kd [5]: > 3.16e-06 M

Structure (SMILES): COc1cc(OC)c(F)c(N(Cc2nccn2S(=O)(=O)N(C)C)c2ccc3ncn(-c4ccncc4)c(=O)c3c2)c1 [Compound 41]
Kd [1]: 3.16e-08 M | Kd [2]: 1e-07 M | Kd [3]: 7.94e-07 M | Kd [4]: 1.26e-07 M | Kd [5]: > 3.16e-06 M

melting point: 168 °C
Structure (SMILES): COc1cc(OC)c(F)c(N(Cc2nccn2S(=O)(=O)N(C)C)c2ccc3ncn(C4CCN(C(=O)OC(C)(C)C)CC4)c(=O)c3c2)c1F

melting point: 255 °C
Structure (SMILES): COc1cc(OC)cc(N(CCCNC(C)C)c2ccc3ncn(C4CCNCC4)c(=O)c3c2)c1

Structure (SMILES): COc1cc(OC)cc(N(Cc2nccn2S(=O)(=O)N(C)C)c2ccc3ncn(C4CCOCC4)c(=O)c3c2)c1 [Compound 68]
Kd [2]: 1.26e-06 M | Kd [3]: > 3.16e-06 M | Kd [4]: > 3.16e-06 M | Kd [5]: > 3.16e-06 M

Structure (SMILES): COc1cc(OC)cc(N(CCCNC(C)C)c2ccc3ncn(C4CCOCC4)c(=O)c3c2)c1 [Compound 73′]
Kd [1]: 6.31e-08 M | Kd [2]: 1.26e-07 M | Kd [3]: 1.26e-06 M | Kd [4]: 2e-07 M

Structure (SMILES): COc1cc(OC)c(F)c(N(CCO)c2ccc3ncn(-c4cncnc4)c(=O)c3c2)c1 [Compound 74]
Kd [1]: 1.26e-07 M | Kd [2]: 7.94e-07 M | Kd [3]: 2e-06 M | Kd [4]: 3.98e-07 M | melting point: 200 °C | Kd [5]: > 3.16e-06 M

Structure (SMILES): COc1cc(OC)c(F)c(N(CCCO)c2ccc3ncn(C4CCNCC4)c(=O)c3c2)c1 [Compound 54]
Kd [1]: 3.16e-07 M | Kd [2]: 7.94e-07 M | Kd [3]: > 3.16e-06 M | Kd [4]: 6.31e-07 M | melting point: 167 °C | Kd [5]: > 3.16e-06 M

Structure (SMILES): COc1cc(OC)cc(N(CCCNC(C)C)c2ccc3ncn(C4CCOCC4)c(=O)c3c2)c1 [Compound 73]
Kd [1]: 5.01e-08 M | Kd [2]: 6.31e-08 M | FGFR4_pKd [3]: 5.9 | Kd [4]: 1.58e-07 M | melting point: 240 °C | Kd [5]: > 3.16e-06 M

Structure (SMILES): COc1cc(OC)c(F)c(N(CCO)c2ccc3ncn(C4CCNCC4)c(=O)c3c2)c1 [Compound 48]
Kd [1]: 6.31e-07 M | Kd [2]: 1.26e-06 M | Kd [3]: > 3.16e-06 M | Kd [4]: 7.94e-07 M | melting point: 173 °C | Kd [5]: > 3.16e-06 M

Structure (SMILES): COc1cc(OC)c(F)c(N(CCCO)c2ccc3ncn(C4CCOCC4)c(=O)c3c2)c1 [Compound 65]
Kd [1]: 5.01e-08 M | Kd [2]: 2e-07 M | Kd [4]: 7.94e-08 M | melting point: 164 °C | Kd [5]: > 3.16e-06 M

Structure (SMILES): CNCCN(c1ccc2ncn(C3CCNCC3)c(=O)c2c1)c1c(F)c(OC)cc(OC)c1F [Compound 57]
Kd [1]: 3.98e-08 M | Kd [2]: 3.16e-08 M | Kd [3]: 1.58e-07 M | Kd [4]: 6.31e-08 M | Kd [5]: 2e-06 M

Kd [1]: 5.01e-07 M | Kd [3]: > 3.16e-06 M | melting point: 168 °C | Kd [5]: > 3.16e-06 M
Structure (SMILES): COc1cc(OC)cc(N(CCO)c2ccc3ncn(-c4cccnc4)c(=O)c3c2)c1 [Compound 31]

Kd [1]: > 3.16e-06 M | Kd [3]: > 3.16e-06 M | Kd [4]: > 3.16e-06 M | melting point: 139 °C | Kd [5]: > 3.16e-06 M
Structure (SMILES): CNCCN(c1cc(OC)cc(OC)c1)c1ccc2ncn(C3CCNCC3)c(=O)c2c1 [Compound 59]

Structure (SMILES): COc1cc(OC)c(F)c(N(CCCNC(C)C)c2ccc3ncn(C4CCNCC4)c(=O)c3c2)c1 [Compound 61′]
Kd [1]: 2e-08 M | Kd [2]: 5.01e-08 M | Kd [3]: 2e-07 M | Kd [4]: 6.31e-08 M | Kd [5]: > 3.16e-06 M

— US9493426B2, “Quinazolinone derivatives useful as FGFR kinase modulators” (priority 2013, dated 2016)
